Experimental data as given in ChEMBL document CHEMBL3621110, “Discovery and Development of the Aryl O-Sulfamate Pharmacophore for Oncology and Women's Health” (J Med Chem, 2015).

Columns and labels:
Homo sapiens [1] = species on record: Homo sapiens; type: functional
Homo sapiens [2] = species on record: Homo sapiens; type: functional; remark: listed apart in the source
Steryl-sulfatase [3] = target: T1, Steryl-sulfatase (Homo sapiens, UniProt P08842); type: microsomes, Placenta, Microsome
T1 sequence (P08842 whole entry): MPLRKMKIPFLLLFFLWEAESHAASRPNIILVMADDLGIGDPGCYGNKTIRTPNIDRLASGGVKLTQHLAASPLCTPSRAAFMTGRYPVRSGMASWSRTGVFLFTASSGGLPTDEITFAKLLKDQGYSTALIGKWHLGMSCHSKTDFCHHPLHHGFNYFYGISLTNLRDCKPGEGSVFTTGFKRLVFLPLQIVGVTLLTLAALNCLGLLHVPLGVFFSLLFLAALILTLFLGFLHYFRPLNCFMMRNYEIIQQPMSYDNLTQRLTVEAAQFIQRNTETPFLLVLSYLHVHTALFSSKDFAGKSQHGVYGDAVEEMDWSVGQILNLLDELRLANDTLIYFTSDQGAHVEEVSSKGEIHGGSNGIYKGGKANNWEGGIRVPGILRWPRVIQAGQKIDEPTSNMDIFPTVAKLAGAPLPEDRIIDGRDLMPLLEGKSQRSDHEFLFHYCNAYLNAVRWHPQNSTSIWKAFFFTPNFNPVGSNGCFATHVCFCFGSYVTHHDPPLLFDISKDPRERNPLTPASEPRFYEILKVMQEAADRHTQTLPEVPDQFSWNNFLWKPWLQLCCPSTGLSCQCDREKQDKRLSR

Steryl-sulfatase [4] = target: T1, Steryl-sulfatase; type: cell-based, JEG-3
Rattus norvegicus [5] = species on record: Rattus norvegicus; assay: animal or person; type: functional; conditions: Wistar, po, 3 h
Rattus norvegicus [6] = species on record: Rattus norvegicus; assay: animal or person; type: functional; conditions: Wistar, po, 3 h; remark: listed apart in the source
Steryl-sulfatase [7] = target: T1, Steryl-sulfatase; set-up: species or system Placenta, Microsome
cells [8] = type: functional, cell-based; conditions: Homo sapiens, PC-3
cells [9] = type: functional, cell-based; conditions: Homo sapiens, A2780 ADR
MCF7 = assay: cells; type: functional; conditions: Homo sapiens
LNCaP = assay: cells; type: functional, cell-based; conditions: Homo sapiens
A2780cisR = assay: cells; type: functional, cell-based; conditions: Homo sapiens
Cytochrome P450 1A2 = target: T2, Cytochrome P450 1A2 (Homo sapiens, UniProt P05177)
T2 sequence (P05177 whole entry): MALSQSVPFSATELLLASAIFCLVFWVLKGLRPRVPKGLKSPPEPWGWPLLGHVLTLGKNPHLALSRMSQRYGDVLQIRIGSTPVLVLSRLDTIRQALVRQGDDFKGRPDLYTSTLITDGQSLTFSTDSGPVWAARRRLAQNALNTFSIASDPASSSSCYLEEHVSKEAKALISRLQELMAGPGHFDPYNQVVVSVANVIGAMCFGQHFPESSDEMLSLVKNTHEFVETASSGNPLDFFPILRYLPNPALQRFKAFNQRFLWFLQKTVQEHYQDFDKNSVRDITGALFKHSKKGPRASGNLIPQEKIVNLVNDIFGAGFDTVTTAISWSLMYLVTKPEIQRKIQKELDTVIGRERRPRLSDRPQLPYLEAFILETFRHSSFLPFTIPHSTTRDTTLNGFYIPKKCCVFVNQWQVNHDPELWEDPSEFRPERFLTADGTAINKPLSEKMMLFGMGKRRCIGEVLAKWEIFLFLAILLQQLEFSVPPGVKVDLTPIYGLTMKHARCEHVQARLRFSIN

MDA-MB-231 = assay: cells; type: functional; conditions: Homo sapiens
DU-145 = assay: cells; type: functional; conditions: Homo sapiens
Steryl-sulfatase [10] = target: T1, Steryl-sulfatase; type: cell-based, MCF7
Rattus norvegicus [11] = species on record: Rattus norvegicus; assay: animal or person; type: functional; conditions: Liver, po, 120 h

C[C@]12CC[C@@H]3c4ccc(OS(N)(=O)=O)cc4CC[C@H]3[C@@H]1CC[C@@H]2O [E2MATE]
inhibition (INH) (Homo sapiens [1]): 91% | inhibition (INH) (Homo sapiens [2]): 96%

C[C@]12CC[C@@H]3c4ccc(OS(N)(=O)=O)cc4CC[C@H]3[C@@H]1CC(=O)N(Cc1ccccc1)C2=O
IC50 (Steryl-sulfatase [3]): 3 nM

CC(C)(C)c1ccc(CN2C(=O)C[C@H]3[C@@H]4CCc5cc(OS(N)(=O)=O)ccc5[C@H]4CC[C@]3(C)C2=O)cc1
IC50 (Steryl-sulfatase [3]): 23 nM

N#Cc1ccc(N(CCSc2ccc(OS(N)(=O)=O)c(Cl)c2)n2cnnc2)cc1
IC50 (Steryl-sulfatase [4]): 1200 nM | inhibition in vivo at 10 mg/kg (Rattus norvegicus [5]): 98% | inhibition in vivo at 10 mg/kg (Rattus norvegicus [6]): 92%

NS(=O)(=O)Oc1ccc2c3c(c(=O)oc2c1)CCCCCCCCCCCCC3
IC50 (Steryl-sulfatase [7]): 370 nM

CCc1cc2c(cc1OS(N)(=O)=O)CC[C@@H]1[C@@H]2CC[C@]2(C)C(=O)CC[C@@H]12
IC50 (cells [8]): 100 nM | IC50 (cells [9]): 100 nM | GI50 (MCF7): 340 nM | IC50 (LNCaP): 100 nM | IC50 (A2780cisR): 100 nM

O=c1oc2cc(O)ccc2c2c1CCCCC2
Ki (Cytochrome P450 1A2): 770 nM

COc1cc2c(cc1OS(N)(=O)=O)CCN(Cc1cc(OC)c(OC)c(OC)c1)C2C (centres undefined)
GI50 (MDA-MB-231): 300 nM | GI50 (DU-145): 360 nM

N#Cc1ccc(N(Cc2ccc3c(Cl)c(OS(N)(=O)=O)ccc3c2)n2cnnc2)cc1
IC50 (Steryl-sulfatase [4]): 26 nM | inhibition in vivo at 10 mg/kg (Rattus norvegicus [5]): 93% | inhibition in vivo at 10 mg/kg (Rattus norvegicus [6]): 93%

N#Cc1ccc(N(Cc2ccc3c(Br)c(OS(N)(=O)=O)ccc3c2)n2cnnc2)cc1
IC50 (Steryl-sulfatase [4]): 205 nM

NS(=O)(=O)Oc1ccc2c3c(c(=O)oc2c1)CCCC3
IC50 (Steryl-sulfatase [7]): 70 nM

NS(=O)(=O)Oc1ccc2c3c(c(=O)oc2c1)CCCCCC3
IC50 (Steryl-sulfatase [7]): 30 nM

CC/C(=C(/CC)c1ccc(OS(N)(=O)=O)cc1)c1ccc(OS(N)(=O)=O)cc1
IC50 (Steryl-sulfatase [10]): 10 nM

CCOc1c(OC)cc(CN2CCc3cc(OS(N)(=O)=O)c(OC)cc3C2)cc1OC
GI50 (MDA-MB-231): 70 nM | GI50 (DU-145): 100 nM

NS(=O)(=O)Oc1ccc2c3c(c(=O)oc2c1)CCCCCCCCCCC3
IC50 (Steryl-sulfatase [7]): 75 nM

C[C@]12CC[C@@H]3c4ccc(OS(N)(=O)=O)cc4CC[C@H]3[C@@H]1CC(=O)N(Cc1cccnc1)C2=O
inhibition in vivo at 10 mg/kg/day (Rattus norvegicus [11]): 99% | IC50 (Steryl-sulfatase [3]): 1 nM

CCCCCCN1C(=O)C[C@H]2[C@@H]3CCc4cc(OS(N)(=O)=O)ccc4[C@H]3CC[C@]2(C)C1=O
IC50 (Steryl-sulfatase [3]): 288 nM

C[C@]12CC[C@@H]3c4ccc(OS(N)(=O)=O)c(Br)c4CC[C@H]3[C@@H]1CCC2=O
GI50 (MCF7): 42 nM

CCCCN1C(=O)C[C@H]2[C@@H]3CCc4cc(OS(N)(=O)=O)ccc4[C@H]3CC[C@]2(C)C1=O
IC50 (Steryl-sulfatase [3]): 382 nM

COc1cc2c(cc1OS(N)(=O)=O)CCN(Cc1cc(Br)c(OC)c(OC)c1)C2
GI50 (MDA-MB-231): 30 nM | GI50 (DU-145): 30 nM

CCN1C(=O)C[C@H]2[C@@H]3CCc4cc(OS(N)(=O)=O)ccc4[C@H]3CC[C@]2(C)C1=O
IC50 (Steryl-sulfatase [3]): 52 nM
